Assays:
CSL = CSL (Homo sapiens, UniProt Q06330); assay: Surface plasmon resonance binding to CSL; details: SPR, equilibrium response fitted to 1:1 binding model
Experimental: The inhibitors described herein were subjected to surface plasmon resonance (“SPR”) to determine their binding constants to the NICD and CSL components of the NTC. In particular, the target protein (NICD1) was immobilized on the dextran surface of the SPR sensor chip. Through a microflow system, a solution with the inhibitor was injected over the immobilized protein layer. The inhibitor bound to the immobilized protein, which led to an increase in SPR signal, indicating association of the ligand to the target protein. After 45 seconds, buffer solution was injected on the microfluidics that dissociated the bound complex between the ligand and the inhibitor. As the inhibitor dissociated from the ligand, a decrease in SPR signal was observed. The equilibrium dissociation constant KD was determined by plotting the equilibrium response (Req) as a function of the concentration of the ligand, and fitting the data to a 1:1 binding model. The results are listed in […].

[1] = tested on: OE19 human esophageal adenocarcinoma xenograft; assay: OE19 cell line xenograft; type: in vivo; details: nude mouse
Source text: The effect of the inhibitors of the disclosure on tumor formation in an animal was investigated using a xenograft model. When introduced into the flank of nude mouse 5×10^6 OE19 cells, a human esophageal adenocarcinoma cell line readily forms tumors over the course of 4 weeks. […] In contrast, treatment under the same regimen with a DMSO control had no effect on tumor growth. […] (FIG. 4) Six-week-old NOD-SCID gamma (“NSG”) mice were purchased from Jackson Laboratories and CD-1 Nude mice were purchased from Charles River Laboratories. For the cell line based xenografts assay, 5×10^6 OE19 cells in 200 μl serum-free culture medium were injected subcutaneously per mouse. The mice in the treatment group were injected with 15 mg/kg of Inhibitor No. 1-134-83 daily, and the mice in the control group were injected with the same volume of vehicle (DMSO). Subcutaneous tumor growth was measured once every 4 days using calipers along with body weight. The experiment was discontinued on day 28. PDX cancer models were established, as described in Zhang et al, Establishment of Patient-Derived Xenograft (PDX) Models of Human Breast Cancer, Current Protocols in Mouse Biology, 3:21-29 (2013), in NSG mice. […] Tumor growth was monitored every 4 days and tumor volume was measured by the formula: Volume=(S×S×L)/2, where S and L are the short and long dimensions. […]

Sequence of CSL (Q06330 whole entry): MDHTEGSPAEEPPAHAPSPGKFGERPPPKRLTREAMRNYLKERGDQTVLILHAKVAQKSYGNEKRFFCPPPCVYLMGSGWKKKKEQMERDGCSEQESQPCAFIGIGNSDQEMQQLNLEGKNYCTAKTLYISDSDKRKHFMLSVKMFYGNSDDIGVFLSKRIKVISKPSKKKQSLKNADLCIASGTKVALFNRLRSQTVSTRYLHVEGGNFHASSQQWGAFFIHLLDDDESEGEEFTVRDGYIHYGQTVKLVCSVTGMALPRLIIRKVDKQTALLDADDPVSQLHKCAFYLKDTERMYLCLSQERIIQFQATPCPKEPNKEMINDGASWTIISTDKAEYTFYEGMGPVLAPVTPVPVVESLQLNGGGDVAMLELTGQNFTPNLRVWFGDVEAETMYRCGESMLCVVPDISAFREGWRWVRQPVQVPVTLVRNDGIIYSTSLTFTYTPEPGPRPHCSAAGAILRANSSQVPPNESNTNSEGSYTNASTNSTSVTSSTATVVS

Kd (CSL): 8 ± 2 µM
Structure (SMILES): CCOC(=O)COc1ccc(/C=C2\SC(=S)NC2=O)cc1OC [1-134-83]
adverse effects on the animal (e.g. change in body weight) ([1]; 15 mg/kg every day): no adverse effects
tumor establishment ([1]; 15 mg/kg every day from second day after transplantation): tumor establishment was blocked

Source: US10501413B2, “Inhibitors of the Notch transcriptional activation complex and methods for use of the same” (UNIVERSITY OF MIAMI, priority 2015, dated 2019)
